From patent publication US20260223853A1, “PESTICIDALLY ACTIVE HETEROCYCLIC DERIVATIVES WITH SULFUR CONTAINING SUBSTITUENTS” (SYNGENTA CROP PROTECTION AG, priority 2023, published 2026)

What was measured:
Format in all cases: in vivo
[1] = tested on: Chilo suppressalis (Striped Rice Stemborer); test: Example B1: Activity against Chilo suppressalis (striped rice stemborer), artificial diet, L2 larvae; details: 144 h, application rate of 200 ppm, 6 days after infestation, in comparison to untreated samples, read-out: control (at least one of mortality, anti-feedant effect, growth inhibition)
Procedure: Example B1: Activity Against Chilo suppressalis (Striped Rice Stemborer)
24-well microtiter plates with artificial diet were treated with aqueous test solutions prepared from 10′000 ppm DMSO stock solutions by pipetting. After drying, the plates were infested with L2 larvae (6-8 per well). The samples were assessed for mortality, anti-feeding effect, and growth inhibition in comparison to untreated samples 6 days after infestation. Control of Chilo suppressalis by a test sample is given when at least one of the categories mortality, anti-feedant effect, and growth inhibition is higher than the untreated sample.

[2] = tested on: Diabrotica balteata (Corn Root Worm); test: Example B2: Activity against Diabrotica balteata (corn root worm), maize sprouts, L2 larvae; details: 96 h, application rate of 200 ppm, 4 days after infestation, in comparison to untreated samples, read-out: effect in at least one of the two categories (mortality or growth inhibition)
Procedure: Example B2: Activity Against Diabrotica balteata (Corn Root Worm)
Maize sprouts placed onto an agar layer in 24-well microtiter plates were treated with aqueous test solutions prepared from 10′000 ppm DMSO stock solutions by spraying. After drying, the plates were infested with L2 larvae (6 to 10 per well). The samples were assessed for mortality and growth inhibition in comparison to untreated samples 4 days after infestation.

[3] = tested on: Myzus persicae (Green peach aphid); test: Example B4: Activity against Myzus persicae (green peach aphid), feeding/contact activity, sunflower leaf discs; details: foliar, 144 h, application rate of 200 ppm, 6 days after infestation
Procedure: Example B4: Activity against Myzus persicae (Green peach aphid) Feeding/Contact activity Sunflower leaf discs were placed onto agar in a 24-well microtiter plate and sprayed with aqueous test solutions prepared from 10′000 ppm DMSO stock solutions. After drying, the leaf discs were infested with an aphid population of mixed ages. The samples were assessed for mortality 6 days after infestation.

[4] = tested on: Plutella xylostella (Diamond Back Moth); test: Example B6: Activity against Plutella xylostella (diamond back moth), artificial diet, eggs; details: 192 h, application rate of 200 ppm, 8 days after infestation, in comparison to untreated samples, read-out: effect in at least one of the two categories (mortality or growth inhibition)
Procedure: Example B6: Activity Against Plutella xylostella (Diamond Back Moth)
24-well microtiter plates with artificial diet were treated with aqueous test solutions prepared from 10′000 ppm DMSO stock solutions by pipetting. After drying, Plutella eggs were pipetted through a plastic stencil onto a gel blotting paper and the plate was closed with it. The samples were assessed for mortality and growth inhibition in comparison to untreated samples 8 days after infestation. The following compounds gave an effect of at least 80% in at least one of the two categories (mortality or growth inhibition) at an application rate of 200 ppm: P.1, P.2, P.3, P.4, P.5, P.6, P.7, P.8, P.9, P.10, P.11, P.12.

[5] = tested on: Spodoptera littoralis (Egyptian Cotton Leaf Worm); test: Example B7: Activity against Spodoptera littoralis (Egyptian cotton leaf worm), cotton leaf discs, L1 larvae; details: foliar, 72 h, application rate of 200 ppm, 3 days after infestation, in comparison to untreated samples, read-out: control (at least one of mortality, anti-feedant effect, growth inhibition)
Procedure: Example B7: Activity Against Spodoptera littoralis (Egyptian Cotton Leaf Worm)
Cotton leaf discs were placed onto agar in 24-well microtiter plates and sprayed with aqueous test solutions prepared from 10′000 ppm DMSO stock solutions. After drying the leaf discs were infested with five L1 larvae. The samples were assessed for mortality, anti-feeding effect, and growth inhibition in comparison to untreated samples 3 days after infestation. Control of Spodoptera littoralis by a test sample is given when at least one of the categories mortality, anti-feedant effect, and growth inhibition is higher than the untreated sample.

[6] = tested on: Euschistus heros (Neotropical Brown Stink Bug); test: Example B3: Activity against Euschistus heros (neotropical brown stink bug), soybean leaves, N2 nymphs; details: 120 h, application rate of 200 ppm, 5 days after infestation, in comparison to untreated samples, read-out: effect in at least one of the two categories (mortality or growth inhibition)
Procedure: Example B3: Activity Against Euschistus heros (Neotropical Brown Stink Bug)
Soybean leaves on agar in 24-well microtiter plates were sprayed with aqueous test solutions prepared from 10′000 ppm DMSO stock solutions. After drying the leaves were infested with N2 nymphs. The samples were assessed for mortality and growth inhibition in comparison to untreated samples 5 days after infestation.

CCS(=O)(=O)c1c(N2CCc3nc(C(F)(F)F)ccc3C2=O)nc2cc(C(F)(F)F)ccn12 [P.1, 6-[3-ethylsulfonyl-7-(trifluoromethyl)imidazo[1,2-a]pyridin-2-yl]-2-(trifluoromethyl)-7,8-dihydro-1,6-naphthyridin-5-one]
≥ 80%: percent control (mortality, anti-feedant effect or growth inhibition) at 200 ppm [1] | percent effect (mortality or growth inhibition) at 200 ppm [2] | mortality at 200 ppm [3] | percent effect (mortality or growth inhibition) at 200 ppm [4] | control at 200 ppm [5]

CCS(=O)(=O)c1cc(C2(C#N)CC2)cnc1N1CCc2cc(C(F)(F)F)ccc2C1=O [P.2, 1-[5-ethylsulfonyl-6-[1-oxo-6-(trifluoromethyl)-3,4-dihydroisoquinolin-2-yl]-3-pyridyl]cyclopropane-carbonitrile]
≥ 80%: percent control (mortality, anti-feedant effect or growth inhibition) at 200 ppm [1] | percent effect (mortality or growth inhibition) at 200 ppm [2] | percent effect (mortality or growth inhibition) at 200 ppm [6] | mortality at 200 ppm [3] | percent effect (mortality or growth inhibition) at 200 ppm [4]

CCS(=O)(=O)c1cc(C2(C#N)CC2)cnc1N1CCc2nc(C(F)(F)C(F)(F)F)ccc2C1=O [P.5, 1-[5-ethylsulfonyl-6-[5-oxo-2-(1,1,2,2,2-pentafluoroethyl)-7,8-dihydro-1,6-naphthyridin-6-yl]-3-pyridyl] cyclopropane-carbonitrile]
≥ 80%: percent control (mortality, anti-feedant effect or growth inhibition) at 200 ppm [1] | percent effect (mortality or growth inhibition) at 200 ppm [2] | percent effect (mortality or growth inhibition) at 200 ppm [6] | percent effect (mortality or growth inhibition) at 200 ppm [4] | control at 200 ppm [5]

CCS(=O)(=O)c1cc(C2(C#N)CC2)cnc1N1CCc2nc(OCC(F)(F)C(F)F)ccc2C1=O [P.10, 1-[5-ethylsulfonyl-6-[5-oxo-2-(2,2,3,3-tetrafluoropropoxy)-7,8-dihydro-1,6-naphthyridin-6-yl]-3-pyridyl] cyclopropane-carbonitrile]
≥ 80%: percent control (mortality, anti-feedant effect or growth inhibition) at 200 ppm [1] | percent effect (mortality or growth inhibition) at 200 ppm [2] | mortality at 200 ppm [3] | percent effect (mortality or growth inhibition) at 200 ppm [4] | control at 200 ppm [5]

CCS(=O)(=O)c1cc(C2(C#N)CC2)cnc1N1CCc2nc(OCC(Cl)(Cl)Cl)ccc2C1=O [P.11, 1-[5-ethylsulfonyl-6-[5-oxo-2-(2,2,2-trichloroethoxy)-7,8-dihydro-1,6-naphthyridin-6-yl]-3-pyridyl]cyclopropane-carbonitrile]
≥ 80%: percent control (mortality, anti-feedant effect or growth inhibition) at 200 ppm [1] | percent effect (mortality or growth inhibition) at 200 ppm [4] | control at 200 ppm [5]

CCS(=O)(=O)c1cc(C2(C#N)CC2)cnc1N1CCc2nc(OCC(F)(F)C(F)(F)F)ccc2C1=O [P.12, 1-[5-ethylsulfonyl-6-[5-oxo-2-(2,2,3,3,3-pentafluoropropoxy)-7,8-dihydro-1,6-naphthyridin-6-yl]-3-pyridyl]cyclopropane-carbonitrile]
≥ 80%: percent control (mortality, anti-feedant effect or growth inhibition) at 200 ppm [1] | percent effect (mortality or growth inhibition) at 200 ppm [2] | mortality at 200 ppm [3] | percent effect (mortality or growth inhibition) at 200 ppm [4] | control at 200 ppm [5]

CCS(=O)(=O)c1cc(C2(C#N)CC2)cnc1N1CCc2nc(OCC(Cl)(Cl)C(F)(F)F)ccc2C1=O [P.13, 1-[6-[2-(2,2-dichloro-3,3,3-trifluoro-propoxy)-5-oxo-7,8-dihydro-1,6-naphthyridin-6-yl]-5-ethylsulfonyl-3-pyridyl]cyclopropane-carbonitrile]
≥ 80%: percent control (mortality, anti-feedant effect or growth inhibition) at 200 ppm [1] | control at 200 ppm [5]
